“Also recorded” adds a separate entry of the source. Where a name gives a salt, the structure may show the parent alone. Read-outs that look alike come from different tables or passages of the source.
How the values were obtained:
human NET = target: T1, human NET (Homo sapiens, UniProt P23975); assay: Human norepinephrine transporter assay, [3H]nisoxetine binding to cell membrane homogenates
T1 construct: expressed in transfected cells
Experimental: Human Norepinephrine Transporter Assay
Nonspecific binding was determined in the presence of 1 μM desipramine. Following incubation, the samples were filtered rapidly under vacuum through glass fiber filters (GF/B, Packard) presoaked with 0.3% PEI, and rinsed several times with ice-cold 50 mM Tris-HCl using a 96-sample cell harvester (Unifilter, Packard). The filters were dried then counted for radioactivity in a scintillation counter (Topcount, Packard) using a scintillation cocktail (Microscint 0, Packard). The results were expressed as a percent inhibition of the control radioligand specific binding. The standard reference compound was protriptyline, which was tested in each experiment at several concentrations to obtain a competition curve from which its IC50 is calculated. Typical assay volumes were 250 μL in 96-well plate and compounds are solubilized in water.

[1] = target: T2, Nitric oxide synthase (neuronal, human recombinant) nNOS (Homo sapiens, UniProt P29475); assay: nNOS (human) enzyme assay, [3H]-L-arginine to L-citrulline conversion; type: biochemical
T2 construct: purchased Axxora LLC ALX-201-068
Experimental: (§3) Primary stock solutions of test compounds at a concentration of 6 mM are prepared. The primary stock solutions of each test compound are prepared freshly in distilled water on the day of study. […] Concentration range of test compound utilized for nNOS are 0.001 to 300 μM and for eNOS are 0.003 to 1000 μM. The vehicle of the test compound or inhibitor is used as blank control. […] The IC50 concentration of L-NAME was run in parallel as a control.
(§4) All incubations are performed in duplicate:
Total reaction volume is 60 μL.
(§5) Mix using a vortex mixer and incubate the above reaction mixture at 37° C. in an incubator for 30 mins.
(§6) Add 400 μL of ice-cold Stop Buffer at the end of the incubation period to stop the reaction. (The EDTA in the Stop Buffer chelates all of the available calcium.) Mix using a vortex mixer and transfer the reaction samples to spin cups and centrifuge using a microcentrifuge, at 13,000 rpm for 30 sec. at room temperature.
(§7) Remove the spin cups from the holder and transfer 450 μL of eluate (containing the unbound L-citrulline) to scintillation vials. Add 3 mL of scintillation fluid and quantify the radioactivity in a liquid scintillation counter.
(§8) Data is analyzed using a Sigmoidal dose-response (variable slope) curve to determine the IC50 value of the test compound.
(§9) Y=Bottom+(Top−Bottom)/(1+10̂((Log IC50−X)*Hill Slope))

[2] = target: T3, Nitric oxide synthase (endothelial, human recombinant) eNOS (Homo sapiens, UniProt P29474); assay: eNOS (human) enzyme assay, [3H]-L-arginine to L-citrulline conversion; type: biochemical
T3 construct: purchased Axxora LLC ALX-201-070
Experimental: as §3, §4
Total reaction volume is 60 μL.
as §5, §6, §7, §8, §9

[3] = tested on: L5/L6 spinal nerve ligation model of neuropathic pain (Chung model); assay: Chung L5/L6 spinal nerve ligation model, tactile allodynia; type: in vivo, rat; settings: rats, 30 mg/kg i.p., one dose
Experimental: (§1) The L5/L6 spinal nerve was surgically ligated and animals allowed to recover for a period of 7-10 days. During this period animals develop neuropathic pain. The reduction of tactile thresholds (post-SNL) was measured following the induction period for comparison with pre-surgery baseline levels (BL). Following drug administration, tactile allodynia was measured at various time points with calibrated von-Frey filaments.
(§2) (a) Chung Model of Injury-induced Neuropathic-like Pain: The experimental designs for the Chung Spinal Nerve Ligation SNL Model assay for neuropathic pain are depicted in FIGS. 1a and 1b. Nerve ligation injury was performed according to the method described by Kim and Chung (Kim and Chung, Pain 50:355-363, 1992). This technique produces signs of neuropathic dysesthesias, including tactile allodynia, thermal hyperalgesia, and guarding of the affected paw. Rats were anesthetized with halothane, and the vertebrae over the L4 to S2 region were exposed. The L5 and L6 spinal nerves were exposed, carefully isolated, and tightly ligated with 4-0 silk sutures distal to the DRG. After ensuring homeostatic stability, the wounds were sutured, and the animals allowed to recover in individual cages. Sham-operated rats were prepared in an identical fashion except that the L5/L6 spinal nerves were not ligated. […]

[4] = tested on: L5/L6 spinal nerve ligation model of neuropathic pain (Chung model); assay: Chung L5/L6 spinal nerve ligation model, thermal hyperalgesia; type: in vivo, rat; settings: rats, 30 mg/kg i.p., one dose
Experimental: as §1, with “paw withdrawal latency after an infrared thermal stimulus” for “tactile thresholds”, “thermal hyperalgesia” for “tactile allodynia”, “points.” for “points with calibrated von-Frey filaments.”
as §2

migraine [5] = settings: migraine patients, single i.v. administration; cited from earlier work
migraine [6] = settings: open pilot study; cited from earlier work
[7] = Table 2, compounds tested as hydrochloride salts, read-out: IC50, Human NET activity
[8] = IC50, Human NET activity, Table 2, compounds tested as hydrochloride salts
[9] = Table 2, compounds tested as hydrochloride salts

T3 sequence (P29474 whole entry): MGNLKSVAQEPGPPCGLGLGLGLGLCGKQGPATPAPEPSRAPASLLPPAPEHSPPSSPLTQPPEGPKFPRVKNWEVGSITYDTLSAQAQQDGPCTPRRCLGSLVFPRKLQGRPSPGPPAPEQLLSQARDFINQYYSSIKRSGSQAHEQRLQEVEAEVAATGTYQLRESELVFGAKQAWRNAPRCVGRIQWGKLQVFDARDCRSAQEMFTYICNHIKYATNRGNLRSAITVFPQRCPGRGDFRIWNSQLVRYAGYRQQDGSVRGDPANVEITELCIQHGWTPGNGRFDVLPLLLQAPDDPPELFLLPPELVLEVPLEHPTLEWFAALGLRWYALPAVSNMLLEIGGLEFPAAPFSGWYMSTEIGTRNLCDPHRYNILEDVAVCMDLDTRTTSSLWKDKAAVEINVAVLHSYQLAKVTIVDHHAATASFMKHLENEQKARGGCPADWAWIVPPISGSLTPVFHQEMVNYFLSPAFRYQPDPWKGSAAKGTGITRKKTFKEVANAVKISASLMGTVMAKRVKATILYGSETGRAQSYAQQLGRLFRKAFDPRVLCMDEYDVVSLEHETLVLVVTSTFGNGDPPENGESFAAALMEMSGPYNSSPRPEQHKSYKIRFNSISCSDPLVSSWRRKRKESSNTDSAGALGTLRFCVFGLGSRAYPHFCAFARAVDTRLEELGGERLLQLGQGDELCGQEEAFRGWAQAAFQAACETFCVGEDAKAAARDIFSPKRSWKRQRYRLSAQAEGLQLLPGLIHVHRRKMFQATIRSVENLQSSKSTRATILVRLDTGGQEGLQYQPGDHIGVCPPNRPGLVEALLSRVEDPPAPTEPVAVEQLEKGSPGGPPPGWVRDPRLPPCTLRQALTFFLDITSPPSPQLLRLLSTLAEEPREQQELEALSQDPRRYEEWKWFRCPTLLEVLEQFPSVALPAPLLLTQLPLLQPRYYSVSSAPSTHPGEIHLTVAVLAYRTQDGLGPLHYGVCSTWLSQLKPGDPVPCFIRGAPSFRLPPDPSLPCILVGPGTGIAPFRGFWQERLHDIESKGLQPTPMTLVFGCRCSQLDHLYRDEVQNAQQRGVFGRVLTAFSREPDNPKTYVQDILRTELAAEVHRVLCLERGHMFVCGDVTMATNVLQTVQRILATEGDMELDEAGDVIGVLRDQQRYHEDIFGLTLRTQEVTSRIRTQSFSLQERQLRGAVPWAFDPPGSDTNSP
T2 sequence (P29475 whole entry): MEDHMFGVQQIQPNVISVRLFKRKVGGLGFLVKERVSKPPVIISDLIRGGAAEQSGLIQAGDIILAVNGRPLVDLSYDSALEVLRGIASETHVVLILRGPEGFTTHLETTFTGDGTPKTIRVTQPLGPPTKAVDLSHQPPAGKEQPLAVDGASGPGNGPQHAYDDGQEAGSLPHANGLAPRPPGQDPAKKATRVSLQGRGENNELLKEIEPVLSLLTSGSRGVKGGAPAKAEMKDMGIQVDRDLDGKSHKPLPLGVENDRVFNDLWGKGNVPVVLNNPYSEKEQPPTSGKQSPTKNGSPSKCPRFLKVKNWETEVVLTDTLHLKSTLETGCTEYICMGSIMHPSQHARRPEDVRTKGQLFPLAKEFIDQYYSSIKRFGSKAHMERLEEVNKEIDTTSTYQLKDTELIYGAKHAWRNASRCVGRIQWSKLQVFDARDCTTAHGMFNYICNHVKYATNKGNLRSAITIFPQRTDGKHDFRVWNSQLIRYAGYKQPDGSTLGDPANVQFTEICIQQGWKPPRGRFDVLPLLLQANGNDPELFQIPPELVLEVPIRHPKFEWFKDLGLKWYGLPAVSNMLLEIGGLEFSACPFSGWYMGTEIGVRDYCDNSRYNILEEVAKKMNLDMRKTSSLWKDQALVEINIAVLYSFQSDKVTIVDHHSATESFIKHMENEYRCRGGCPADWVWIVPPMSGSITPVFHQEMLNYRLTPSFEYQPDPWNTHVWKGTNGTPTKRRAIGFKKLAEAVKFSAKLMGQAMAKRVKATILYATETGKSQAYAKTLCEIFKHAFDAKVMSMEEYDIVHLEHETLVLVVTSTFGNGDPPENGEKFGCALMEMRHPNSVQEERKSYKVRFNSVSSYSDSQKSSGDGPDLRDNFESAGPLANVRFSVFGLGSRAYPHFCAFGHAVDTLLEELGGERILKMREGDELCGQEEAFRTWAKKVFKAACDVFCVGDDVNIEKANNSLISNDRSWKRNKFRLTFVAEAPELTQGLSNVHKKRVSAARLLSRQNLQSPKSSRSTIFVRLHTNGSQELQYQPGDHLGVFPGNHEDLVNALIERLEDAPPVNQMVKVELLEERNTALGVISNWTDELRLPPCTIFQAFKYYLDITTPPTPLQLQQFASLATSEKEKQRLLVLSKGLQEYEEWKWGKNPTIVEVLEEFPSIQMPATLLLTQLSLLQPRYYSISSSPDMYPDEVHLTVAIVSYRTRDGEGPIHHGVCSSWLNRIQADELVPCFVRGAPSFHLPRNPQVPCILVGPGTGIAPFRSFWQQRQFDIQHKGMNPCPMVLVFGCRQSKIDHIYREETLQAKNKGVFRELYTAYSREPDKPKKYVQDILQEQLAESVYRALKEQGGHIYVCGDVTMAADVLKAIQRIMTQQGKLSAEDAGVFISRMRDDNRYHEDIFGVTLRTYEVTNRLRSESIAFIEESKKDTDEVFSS
T1 sequence (P23975 whole entry): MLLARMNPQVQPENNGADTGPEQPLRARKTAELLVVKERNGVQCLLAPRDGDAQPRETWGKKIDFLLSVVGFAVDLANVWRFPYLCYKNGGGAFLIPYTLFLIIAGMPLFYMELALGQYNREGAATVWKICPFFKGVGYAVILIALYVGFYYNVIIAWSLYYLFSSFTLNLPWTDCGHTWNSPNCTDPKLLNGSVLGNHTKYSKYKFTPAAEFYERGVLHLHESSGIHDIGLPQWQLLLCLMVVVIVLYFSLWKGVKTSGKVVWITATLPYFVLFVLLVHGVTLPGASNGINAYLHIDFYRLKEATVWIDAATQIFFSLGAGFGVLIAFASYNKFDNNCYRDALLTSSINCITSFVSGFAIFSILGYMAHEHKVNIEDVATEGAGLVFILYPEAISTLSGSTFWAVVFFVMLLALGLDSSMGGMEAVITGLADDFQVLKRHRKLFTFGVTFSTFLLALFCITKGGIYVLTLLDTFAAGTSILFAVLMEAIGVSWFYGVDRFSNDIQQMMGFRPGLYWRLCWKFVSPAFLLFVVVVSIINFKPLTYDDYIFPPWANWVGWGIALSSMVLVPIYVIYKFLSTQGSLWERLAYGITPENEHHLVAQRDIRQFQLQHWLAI

SMILES	IC50 (human NET; [7])	IC50 [1, 9]	IC50 [2, 9]	also measured
CNC1CCC(c2c[nH]c3ccc(NC(=N)c4cccs4)cc23)CC1 (mixture of isomers) [Compound 1, N-(3-(4-(methylamino)cyclohexyl)-1H-indol-5-yl)thiophene-2-carboximidamide]	520 nM			
CCNC1CCC(c2c[nH]c3ccc(NC(=N)c4cccs4)cc23)CC1 (mixture of isomers) [Compound 5, N-(3-(4-(ethylamino)cyclohexyl)-1H-indol-5-yl)thiophene-2-carboximidamide]	270 nM			
CCNC1CCC(c2c[nH]c3ccc(NC(=N)c4cccs4)cc23)C1 (mixture of isomers) [Compound 11, N-(3-(3-(ethylamino)cyclopentyl)-1H-indol-5-yl)thiophene-2-carboximidamide]				IC50 ([1]; Table 3): 257 nM; IC50 ([2]; Table 3): 14.3 µM
CN(C)C1CC=C(c2c[nH]c3ccc(NC(=N)c4cccs4)cc23)CC1 (racemic) [(±)-2, N-(3-(4-(dimethylamino)cyclohex-1-enyl)-1H-indol-5-yl)thiophene-2-carboximidamide]		3000 nM	51.4 µM	IC50 (human NET; [8]): 550 nM
CNC1CC=C(c2c[nH]c3ccc(NC(=N)c4cccs4)cc23)CC1 (racemic) [(±)-3, N-(3-(4-(methylamino)cyclohex-1-enyl)-1H-indol-5-yl)thiophene-2-carboximidamide]	1300 nM	1730 nM	32 µM	
CCNC1CC=C(c2c[nH]c3ccc(NC(=N)c4cccs4)cc23)CC1 (racemic) [(±)-6, N-(3-(4-(ethylamino)cyclohex-1-enyl)-1H-indol-5-yl)thiophene-2-carboximidamide]	280 nM	1420 nM	40.3 µM	
CNC1CCCC(c2c[nH]c3ccc(NC(=N)c4cccs4)cc23)C1 (racemic) [(±)-8, N-(3-(3-(methylamino)cyclohexyl)-1H-indol-5-yl)thiophene-2-carboximidamide]				IC50 (human NET; IC50, Human NET, Table 3): 880 nM; IC50 ([2]; Table 3): 7.76 µM
CCNC1CCCC(c2c[nH]c3ccc(NC(=N)c4cccs4)cc23)C1 (racemic) [(±)-9, N-(3-(3-(ethylamino)cyclohexyl)-1H-indol-5-yl)thiophene-2-carboximidamide]				IC50 (human NET; IC50, Human NET, Table 3): 760 nM
CCNC1CCCC(c2c[nH]c3ccc(NC(=N)c4cccs4)cc23)C1 (racemic) [(±)-10, N-(3-(3-(ethylamino)cyclohexyl)-1H-indol-5-yl)thiophene-2-carboximidamide]				IC50 (human NET; IC50, Human NET, Table 3): 1700 nM
CNC1CCCC(c2c[nH]c3ccc(NC(=N)c4cccs4)cc23)C1 (single isomer, unassigned) [(±)-7, N-(3-(-3-(Methylamino)cyclohexyl)-1H-indol-5-yl)thiophene-2-carboximidamide]				IC50 (human NET; IC50, Human NET, Table 3): 2500 nM; IC50 ([2]; Table 3): 77.6 µM
CN(C)C1CC=C(c2c[nH]c3ccc(NC(=N)c4cccs4)cc23)CC1 (single isomer, unassigned) [Compound 2a, N-(3-(4-(Dimethylamino)cyclohex-1-enyl)-1H-indol-5-yl)thiophene-2-carboximidamide]		865 nM	47.1 µM	IC50 (human NET; [8]): 1100 nM
CN(C)C1CC=C(c2c[nH]c3ccc(NC(=N)c4cccs4)cc23)CC1 (single isomer, unassigned) [Compound 2b, N-(3-(4-(Dimethylamino)cyclohex-1-enyl)-1H-indol-5-yl)thiophene-2-carboximidamide]		839 nM	96 µM	IC50 (human NET; [8]): 960 nM
CNC1CC=C(c2c[nH]c3ccc(NC(=N)c4cccs4)cc23)CC1 (single isomer, unassigned) [Compound 3a, N-(3-(4-(Methylamino)cyclohex-1-enyl)-1H-indol-5-yl)thiophene-2-carboximidamide]	1100 nM	439 nM	53.4 µM	
CNC1CC=C(c2c[nH]c3ccc(NC(=N)c4cccs4)cc23)CC1 (single isomer, unassigned) [Compound 3b, N-(3-(4-(Methylamino)cyclohex-1-enyl)-1H-indol-5-yl)thiophene-2-carboximidamide]	1100 nM	537 nM	40.9 µM	
CCN[C@H]1CC[C@H](c2c[nH]c3ccc(NC(=N)c4cccs4)cc32)CC1 (single isomer, unassigned) [Compound 5a, trans-N-(3-(4-(Ethylamino)cyclohexyl)-1H-indol-5-yl)thiophene-2-carboximidamide]	2800 nM			
CCN[C@H]1CC[C@@H](c2c[nH]c3ccc(NC(=N)c4cccs4)cc32)CC1 (single isomer, unassigned) [Compound 5b, cis-N-(3-(4-(Ethylamino)cyclohexyl)-1H-indol-5-yl) thiophene-2-carboximidamide]	380 nM			
CNC1CCCC(c2c[nH]c3ccc(NC(=N)c4cccs4)cc23)C1 (single isomer, unassigned) [Compound 7a, N-(3-(3-(Methylamino)cyclohexyl)-1H-indol-5-yl)thiophene-2-carboximidamide dihydrochloride [(+)-cis-enantiomer]]				IC50 (human NET; IC50, Human NET, Table 3): 1000 nM; reversal of tactile allodynia (antiallodynic effect) [3]: reversal of tactile hyperthesia; also recorded: pronounced antiallodynic effect; reversal of tactile allodynia (antiallodynic effect) ([3]; listed as (+)−7a): reversal of tactile allodynia; IC50 ([2]; Table 3): 49.3 µM; reversal of thermal hyperalgesia (antihyperalgesic effect) [4]: clear antihyperalgesic effect; reversal of thermal hyperalgesia (antihyperalgesic effect) ([4]; listed as (+)−7a): reversal of thermal hyperalgesia
CNC1CCCC(c2c[nH]c3ccc(NC(=N)c4cccs4)cc23)C1 (single isomer, unassigned) [Compound 7b, N-(3-(3-(Methylamino)cyclohexyl)-1H-indol-5-yl)thiophene-2-carboximidamide dihydrochloride [(−)-cis-enantiomer]]				IC50 (human NET; IC50, Human NET, Table 3): 5200 nM; IC50 ([2]; Table 3): 75 µM
CN[C@H]1CC[C@@H](c2c[nH]c3ccc(NC(=N)c4cccs4)cc32)CC1 [Compound 1a, N-(3-(4-(Methylamino)cyclohexyl)-1H-indol-5-yl)thiophene-2-carboximidamide]	400 nM			
CN[C@H]1CC[C@H](c2c[nH]c3ccc(NC(=N)c4cccs4)cc32)CC1 [Compound 1b, N-(3-(4-(Methylamino)cyclohexyl)-1H-indol-5-yl)thiophene-2-carboximidamide]	2000 nM			
CN(C)C1CCC(c2c[nH]c3ccc(NC(=N)c4cccs4)cc23)CC1 (stereo not drawn) [Compound 4, N-(3-(4-(dimethylamino)cyclohexyl)-1H-indol-5-yl)thiophene-2-carboximidamide]		3440 nM	31.8 µM	IC50 (human NET; [8]): 190 nM
CNC(=N)NCCC[C@H](N)C(=O)O [L-NMMA, N^G-monomethyl-L-arginine]				response rate (migraine [5]): 67%
C/C1=C2/[N-][C@H]([C@H](CC(N)=O)[C@@]2(C)CCC(=O)NC[C@@H](C)OP(=O)([O-])O[C@H]2[C@@H](O)[C@@H](n3cnc4cc(C)c(C)cc43)O[C@@H]2CO)[C@]2(C)N=C(/C(C)=C3N=C(/C=C4N=C1[C@@H](CCC(N)=O)C\4(C)C)[C@@H](CCC(N)=O)[C@]\3(C)CC(N)=O)[C@@H](CCC(N)=O)[C@]2(C)CC(N)=O.[Co+3].[OH-] [hydroxycobalamin]				patients with a reduction in the frequency of migraine attack of 50% (migraine [6]): 53%
